We go through 85 compounds from ChEMBL document CHEMBL5604063, “ASAP - DENV-2 NS2B-NS3 protease fluorescence dose response” (2024).

“And” between values parts separate entries of the source, which are not always exact repeats. Identical values can stand only once. Some results are limits rather than exact numbers.

In the experiment the target is Genome polyprotein (dengue virus type 2, UniProt P29990). The experiment is classed as functional, Thailand/16681/1984.
Genome polyprotein, sequence (P29990 1346-1475 limits assumed): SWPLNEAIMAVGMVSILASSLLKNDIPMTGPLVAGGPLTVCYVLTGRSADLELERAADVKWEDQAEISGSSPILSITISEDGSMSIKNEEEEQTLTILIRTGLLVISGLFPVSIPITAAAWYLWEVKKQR
Genome polyprotein, sequence (P29990 1476-2093 limits assumed): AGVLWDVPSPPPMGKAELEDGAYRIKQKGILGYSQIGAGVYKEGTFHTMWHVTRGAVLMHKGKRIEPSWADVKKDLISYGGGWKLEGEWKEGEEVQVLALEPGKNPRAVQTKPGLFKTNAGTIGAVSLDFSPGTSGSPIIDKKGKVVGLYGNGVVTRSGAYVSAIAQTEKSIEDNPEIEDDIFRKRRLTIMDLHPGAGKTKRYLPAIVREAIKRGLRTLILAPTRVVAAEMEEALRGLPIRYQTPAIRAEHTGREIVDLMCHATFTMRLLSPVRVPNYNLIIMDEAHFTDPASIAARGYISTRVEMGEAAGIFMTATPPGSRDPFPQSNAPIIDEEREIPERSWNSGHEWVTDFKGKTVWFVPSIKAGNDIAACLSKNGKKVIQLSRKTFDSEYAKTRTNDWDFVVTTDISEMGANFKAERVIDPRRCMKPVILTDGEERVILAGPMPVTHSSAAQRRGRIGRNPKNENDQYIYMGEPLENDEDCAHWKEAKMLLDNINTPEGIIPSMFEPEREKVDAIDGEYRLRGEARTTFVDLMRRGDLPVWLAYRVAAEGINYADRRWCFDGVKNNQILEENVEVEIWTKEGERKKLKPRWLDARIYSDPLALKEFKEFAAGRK
As usually defined, the IC50 is the concentration needed to halve the response being measured. Low readings indicate inhibition by little substance, high ones a need for much substance. Take `O=C(N[C@H](C(=O)NCc1cccc(CC(F)(F)F)c1)c1ccc(OCc2ccccc2)cc1)OCc1ccccc1`: the IC50 was over 99.5 µM. As for `CC[C@@H](C)c1nc(C)cc(N2CCC(n3ncc(N)c3C(F)(F)F)CC2)n1`, the figure is over 99.5 µM; as for `Cc1ccc([C@@H](NC(=O)OCc2ccccc2)C(=O)Nc2cccc(CN)c2)cc1C(F)(F)F`, over 99.5 µM. Take `CCn1c(=O)c(N2C[C@@H](CO)[C@H](c3cncn3C)C2)nc2ccccc21`: the IC50 was over 99.5 µM. The compound `NC(=O)c1cccnc1N1CCCN(c2nc(-c3cc(Cl)cc(Cl)c3)no2)CC1` came in with an IC50 of over 99.5 µM.

For `O=c1[nH]ncn1C1CCN(Cc2c[nH]c3ccccc23)CC1`, the half-inhibitory concentration (IC50) was over 99.5 µM.

Consider `Cc1cc(C)c([C@@H](NC(=O)OCc2ccccc2)C(=O)Nc2cccc(CN)c2)c(C)c1`, for which the IC50 was over 99.5 µM. The compound `CCn1c(=O)c(N2CC[C@H](N3CCCS3(=O)=O)C2)nc2ccccc21` registered an IC50 of over 99.5 µM. Compound `CCc1cc(COc2ccc(S(=O)(=O)Nc3ccc(Cl)cc3C(=O)O)cc2)no1` gave an IC50 of 45.5 µM. Compound `CS(=O)(=O)NCc1ccc(CNC(=O)[C@@H](NC(=O)OCc2ccccc2)c2ccc(OCc3ccccc3)cc2)cc1` registered an IC50 of over 99.5 µM.

In the case of `O=Cc1ccc(F)c(C(=O)N2CCN(C3=NCCCN3)CC2)c1`, the IC50 was over 99.5 µM. Compound `CCn1cnnc1COc1ccc(S(=O)(=O)Nc2ccc(Cl)cc2C(=O)O)cc1` returned an IC50 of over 99.5 µM.

In the case of `COc1ccc(CNC(=O)[C@@H](NC(=O)OCc2ccccc2)c2ccc(OCc3ccccc3)cc2)cn1`, the IC50 is over 99.5 µM. Regarding `CC(C)n1cc(CNC(=O)[C@@H](NC(=O)OCc2ccccc2)c2ccc(OCc3ccccc3)cc2)cn1`, the concentration for half-maximal inhibition (IC50) is over 99.5 µM.

Consider `Cc1ocnc1COc1ccc(S(=O)(=O)Nc2ccc(Cl)cc2C(=O)O)cc1`, for which the IC50 is over 99.5 µM. As for `COC(=O)[C@@H](C)NC(=O)c1cc(Cl)ccc1NS(=O)(=O)c1ccc(Oc2ccccc2Cl)cc1`, the figure is 39 µM; as for `O=C(O)c1cc(Cl)ccc1CNS(=O)(=O)c1ccc(Oc2ccccc2Cl)cc1`, 98.8 µM; as for `COc1cncc(CNC(=O)[C@@H](NC(=O)OCc2ccccc2)c2ccc(OCc3ccccc3)cc2)c1`, over 99.5 µM. As for `O=C(N[C@@H](C(=O)Nc1ccncc1)c1ccc(OCc2ccccc2)cc1)OCc1ccccc1`, the figure is over 99.5 µM. `O=C(O)c1cc(Cl)ccc1NS(=O)(=O)c1ccc(OCc2ccccn2)cc1` displayed an IC50 of over 99.5 µM. The compound `O=C(O)Cn1ccnc(N2CC[C@@H](CO)C2)c1=O` gave an IC50 of over 99.5 µM. Compound `CN1CCc2ccc(C(=O)N3CCNc4ccccc4C3)cc2C1` gave an IC50 of over 99.5 µM.

`NS(=O)(=O)c1ccc(N2CCC=C(c3cccc(O)c3)C2)c2ncccc12` showed an IC50 of over 99.5 µM. As for `CCn1c(=O)c(N2C[C@@H]3CCO[C@]3(COC)C2)nc2ccccc21`, the figure is over 99.5 µM; as for `CN(C)Cc1ccccc1CNC(=O)[C@@H](NC(=O)OCc1ccccc1)c1ccc(OCc2ccccc2)cc1`, over 99.5 µM.

As for `NCc1cccc(NC(=O)[C@@H](NC(=O)OCc2ccccc2)c2ccc(C(F)(F)F)cc2)c1`, half-maximal inhibition (IC50) was put at 64.3 µM. In the case of `CN(C)Cc1cncc(NC(=O)[C@@H](NC(=O)OCc2ccccc2)c2ccc(OCc3ccccc3)cc2)c1`, the IC50 was over 99.5 µM. Regarding `O=C(N[C@H](C(=O)NCc1ccc(F)cc1)c1ccc(OCc2ccccc2)cc1)OCc1ccccc1`, the IC50 is over 99.5 µM. Regarding `CCn1c(=O)c(N2CC[C@@]3(COC(=O)N3)C2)nc2ccccc21`, the IC50 was over 99.5 µM. `CN1CCN(Cc2ccccc2CNC(=O)[C@@H](NC(=O)OCc2ccccc2)c2ccc(OCc3ccccc3)cc2)CC1` gave an IC50 of over 99.5 µM. Next, `Cc1ccc2c(c1)CN(C(=O)c1ccc(C3(CN)CC3)cc1)C(C)(C)C2`: over 99.5 µM. Consider `CN(C)CCOc1cccc(CNC(=O)[C@@H](NC(=O)OCc2ccccc2)c2ccc(OCc3ccccc3)cc2)c1`, for which the IC50 is over 99.5 µM.

Take `Cc1cnn(-c2cccc(-c3cccc(C4(CN)CC4)c3)c2)c1`: the 50% inhibitory concentration (IC50) is over 99.5 µM.

On to `Cc1ncccc1-c1ccc([C@@H](NC(=O)OCc2ccccc2)C(=O)Nc2cccc(CN)c2)cc1`, for which the IC50 was over 99.5 µM. `O=C(N[C@@H](C(=O)Nc1ccc2c(n1)CNC2)c1ccc(OCc2ccccc2)cc1)OCc1ccccc1` gave an IC50 of over 99.5 µM. `O=C(N[C@@H](C(=O)NCc1cccnc1)c1ccc(OCc2ccccc2)cc1)OCc1ccccc1` registered an IC50 of over 99.5 µM. As to `O=C(O)c1cc(Cl)cc(F)c1NS(=O)(=O)c1ccc(Oc2ccccc2Cl)cc1`, the midpoint of inhibition, the IC50, lay at 18.6 µM. As for `CCOCCNC(=O)c1cc(Cl)ccc1NS(=O)(=O)c1ccc(Oc2ccccc2Cl)cc1`, the figure is 20 µM and 20.5 µM; as for `CS(=O)(=O)c1cccc(CNC(=O)[C@@H](NC(=O)OCc2ccccc2)c2ccc(OCc3ccccc3)cc2)c1`, over 99.5 µM. With `NCCc1ccc(CNC(=O)[C@@H](NC(=O)OCc2ccccc2)c2ccc(OCc3ccccc3)cc2)cc1`, the IC50 is 21.2 µM and 21.7 µM.

`Cn1c(C(=O)N2CCCc3ccc(C(F)F)cc32)cc2c1CCNC2` had a 50% inhibitory concentration (IC50) of over 99.5 µM. As to `NCCCc1ccc(C(=O)N2CC(c3cccc(Br)c3)C2)cc1`, the IC50 was over 99.5 µM. Next, `N[C@H]1CC[C@H](CNC(=O)[C@@H](NC(=O)OCc2ccccc2)c2ccc(OCc3ccccc3)cc2)CC1`: over 99.5 µM. The compound `CN(C(=O)c1ccc2c(c1)[C@H](CN)CCC2)C1CCN(CC(F)F)CC1` had an IC50 of over 99.5 µM. As for `NCc1cccc(NC(=O)[C@@H](NC(=O)c2cccnc2)c2ccc(OCc3ccccc3)cc2)c1`, the figure is over 99.5 µM; as for `CCn1c(=O)c(N2CC[C@H](NC(=O)NC3CC3)C2)nc2ccccc21`, over 99.5 µM. The compound `Cc1cc(C=O)c(O)c(C(=O)N2CC[C@H](CN(C)C)C2)c1` showed an IC50 of over 99.5 µM.

In the case of `C[C@@H](Oc1ccc(S(=O)(=O)Nc2ccc(Cl)cc2C(=O)O)cc1)c1ccccc1F`, the IC50 was 8.2 µM. As for `Cc1n[nH]c2cc(C(=O)N3CCC(C)(NC(=O)[C@H]4C[C@H](N(C)C)C4)CC3)ccc12`, the figure is over 99.5 µM.

For `CN1CCC(c2nc(C(F)(F)F)n3c2CN(c2cccc(C(N)=O)n2)CC3)CC1`, the IC50 was over 99.5 µM. In the case of `CCn1c(=O)c(N2C[C@H]3COC(C)(C)OC[C@H]3C2)nc2ccccc21`, the IC50 was over 99.5 µM. As for `CN1CCc2ncc(NC(=O)[C@@H](NC(=O)OCc3ccccc3)c3ccc(OCc4ccccc4)cc3)cc2C1`, the figure is over 99.5 µM; as for `OCc1ccc(Cl)c(N2CCN(c3ccc4[nH]cnc4c3)CC2)n1`, over 99.5 µM; as for `CCn1c(=O)c(N2C[C@@H]3[C@H](C2)[C@H]3C(=O)OC)nc2ccccc21`, over 99.5 µM. As to `CC(C)c1cnc(COc2ccc(S(=O)(=O)Nc3ccc(Cl)cc3C(=O)O)cc2)o1`, the half-inhibitory concentration (IC50) worked out at 55.7 µM. As for `O=C(N[C@@H](C(=O)NCc1ccc(CN2CCCC2)cc1)c1ccc(OCc2ccccc2)cc1)OCc1ccccc1`, the IC50 is over 99.5 µM. Take `CN(C)Cc1ccc(CNC(=O)[C@@H](NC(=O)OCc2ccccc2)c2ccc(OCc3ccccc3)cc2)cc1`: the IC50 was over 99.5 µM. The compound `O=C(N[C@@H](C(=O)NCc1cccc(CN2CCCCC2)c1)c1ccc(OCc2ccccc2)cc1)OCc1ccccc1` displayed an IC50 of over 99.5 µM. The compound `NS(=O)(=O)c1cc(F)c(Cl)cc1N1CCN(c2ccnc(O)c2)CC1` yielded an IC50 of over 99.5 µM. As for `CCn1c(=O)c(N2CC[C@@]23CCN(C)C3)nc2ccccc21`, the IC50 was over 99.5 µM.

`NCc1ccccc1C1CCN(C(=O)[C@H]2CCN3CC[C@H]2C3)CC1`: the IC50 was over 99.5 µM. In the case of `CN(C)Cc1cc(CNC(=O)[C@@H](NC(=O)OCc2ccccc2)c2ccc(OCc3ccccc3)cc2)ccc1F`, the IC50 is over 99.5 µM. Take `Cc1ccc([C@@H](NC(=O)OCc2ccccc2)C(=O)Nc2cccc(CN)c2)cc1C`: the IC50 was over 99.5 µM.

Regarding `CS(=O)(=O)NCc1cccc(CNC(=O)[C@@H](NC(=O)OCc2ccccc2)c2ccc(OCc3ccccc3)cc2)c1`, the IC50 is over 99.5 µM. `C[C@@H](O)c1cccc(N2CCC(c3nc(N)ncc3F)CC2)n1` came in with an IC50 of over 99.5 µM. Next, `O=C(O)c1ncc(F)cc1NS(=O)(=O)c1ccc(Oc2ccccc2Cl)cc1`: 61.7 µM; `CN(C)C(=O)[C@@H](NC(=O)OCc1ccccc1)c1ccc(OCc2ccccc2)cc1`: over 99.5 µM.

Take `C[C@@H]1c2cccnc2CCN1Cc1cccc(CN(C)C)c1`: the IC50 is over 99.5 µM. `O=C(O)c1cc(Cl)ccc1NS(=O)(=O)c1ccc(OCc2cccnc2)cc1` yielded an IC50 of over 99.5 µM. With `CCn1c(=O)c(N2CC[C@@]3(CCCN3C)C2)nc2ccccc21`, the IC50 is over 99.5 µM.

Compound `CN(C)[C@H]1CCc2cc(-c3cccc(N4CCNC4=O)c3)ccc2NC1` showed an IC50 of over 99.5 µM. As to `O=C(N[C@H](C(=O)NCc1cccc(CO)c1)c1ccc(OCc2ccccc2)cc1)OCc1ccccc1`, the IC50 is over 99.5 µM. `C[C@@H](NC(=O)c1cc(Cl)ccc1NS(=O)(=O)c1ccc(Oc2ccccc2Cl)cc1)C(=O)O` displayed an IC50 of over 99.5 µM. `O=C(O)c1cc(Cl)c(F)cc1NS(=O)(=O)c1ccc(Oc2ccccc2)cc1` showed an IC50 of 13.1 µM. In turn, `Cc1cc(CNC(=O)[C@@H](NC(=O)OCc2ccccc2)c2ccc(OCc3ccccc3)cc2)cc(C)n1` yielded an IC50 of over 99.5 µM.

In turn, `CC(C)(CO)NC(=O)[C@@H](NC(=O)OCc1ccccc1)c1ccc(OCc2ccccc2)cc1` came in with an IC50 of over 99.5 µM.

The compound `CCn1c(=O)c(N2C[C@H]3CCCN3C(=O)[C@H]2C)nc2ccccc21` registered an IC50 of over 99.5 µM. On to `O=C(N[C@@H](C(=O)Nc1ccccn1)c1ccc(OCc2ccccc2)cc1)OCc1ccccc1`, for which the IC50 is over 99.5 µM.

On to `NCc1cccc(NC(=O)[C@H]2c3ccc(Br)cc3CCN2C(=O)OCc2ccccc2)c1`, for which the IC50 is over 99.5 µM. `CN1CCN(Cc2cccc(CNC(=O)[C@@H](NC(=O)OCc3ccccc3)c3ccc(OCc4ccccc4)cc3)c2)CC1` came in with an IC50 of over 99.5 µM.

In the case of `CCc1ccc([C@@H](NC(=O)OCc2ccccc2)C(=O)Nc2cccc(CN)c2)cc1`, the IC50 was over 99.5 µM.

As to `NCc1cccc(NC(=O)[C@@H](NC(=O)OCc2ccccc2)c2ccc(-c3cccc4c3CCO4)cc2)c1`, the IC50 stood at 27.8 µM. As for `Cn1nc(C2CCN(C(=O)c3ccccc3CSc3nnc[nH]3)CC2)cc1O`, the figure is over 99.5 µM. Next, `Nc1ccc(CNC(=O)[C@@H](NC(=O)OCc2ccccc2)c2ccc(OCc3ccccc3)cc2)nc1`: over 99.5 µM; `NCc1cccc(NC(=O)[C@@H](NC(=O)OCc2ccccc2)c2ccc(-c3cccc(F)c3)cc2)c1`: 8.05 µM and 6.08 µM and 6.21 µM.
